# Where “and” joins values, the source holds several entries; their conditions need not be identical. Equal entries are not always repeated.
# How the values were obtained:
# [1] = tested on: subjects with diabetic or idiopathic gastroparesis; experiment: DIGEST I: weekly GRS total score; conditions: ITT
# Text: Gastroparesis Rating Score is a patient reported outcome that measures 9 symptoms: (1) nausea, (2) bloating, (3) postprandial fullness, (4) early satiety, (5) vomiting, (6) abdominal pain, (7) epigastric burning, (8) gastric reflux with or without burning, and (9) bowel movements, using up to 27 questions assessing the severity of the symptom, the daily frequency of the symptom, the length of time on a daily basis of the symptom, and whether the symptom continues over a 24-hour period.
# The total duration of study participation for each completed subject was approximately 19 weeks including: • Screening period: up to 5 weeks, including one week baseline period; • Treatment period: 12 weeks; and • Follow-up: 2 weeks.
# During the treatment period, subjects were instructed to take 1 capsule of study drug once daily approximately 30 minutes prior to eating at approximately the same time each morning and to record the time of drug ingestion in the electronic diary. Subjects also completed the GCS1-24H and GRS on a daily basis using an electronic diary. […] Subjects returned to the study center for safety and efficacy assessments as detailed in the Schedule of Study Procedures.
# (§1) A daily proprietary patient reported outcome (PRO) tool was used to assess GP symptoms, the Gastroparesis Rating Scale (GRS), developed according to the current FDA PRO guidance. The GRS covers the following cardinal symptom domains: (1) nausea, (2) vomiting, (3) postprandial fullness/early satiety, (4) bloating, (5) upper abdominal pain, (6) gastric reflux/burning, and (7) bowel movements. The GRS symptom domains may be also categorized or grouped into Factor 1 (fullness, early satiety, bloating, upper abdominal pain, and epigastric burning) and Factor 2 (nausea and vomiting).
# The primary endpoint evaluation time point was Week 4 with sensitivity analyses conducted at Weeks 8 and 12.
# LS Mean Differences in each subgroup are calculated based on repeated measures mixed effect model with change from baseline in weekly GRS total score as dependent variable, treatment, gastroparesis type (diabetic vs. idiopathic), GE test time (historical vs. prospective), baseline GRS total score, time, subgroup variable, interaction effect of treatment by time, baseline GRS total score by time, treatment by subgroup variable, time by subgroup variable and treatment by time by subgroup variable as fixed effect, a random effect of subject within site, using an unstructured covariance structure.
# [2] = tested on: subjects with diabetic or idiopathic gastroparesis; experiment: DIGEST I: GRS Summary Score 2 (Factor 2: nausea and vomiting); format: in vivo, human
# Text: as §1
# GRS Factor 1 (also Summary Score 1) comprised fullness/early satiety, bloating, upper abdominal pain, and epigastric burning domains, whereas GRS Factor 2 (also Summary Score 2) comprised nausea and vomiting domains.
# After the psychometric evaluation the GRS was summarized using two summary scores: Summary Score 1 combined the fullness/early satiety, bloating, upper abdominal pain, and epigastric burning domains and Summary Score 2 combined the nausea and vomiting domains.
# [3] = 5 mg/day, Week 4, diabetic gastroparesis population
# [4] = 5 mg/day, Week 4, idiopathic gastroparesis population
# [5] = 5 mg/day, Week 8, diabetic gastroparesis population
# [6] = 5 mg/day, Week 8, idiopathic gastroparesis population
# [7] = 5 mg/day, Week 12, diabetic gastroparesis population
# [8] = 5 mg/day, Week 12, idiopathic gastroparesis population
# [9] = 15 mg/day, Week 4, diabetic gastroparesis population
# [10] = 15 mg/day, Week 4, idiopathic gastroparesis population
# [11] = 15 mg/day, Week 8, diabetic gastroparesis population
# [12] = 15 mg/day, Week 8, idiopathic gastroparesis population
# [13] = 15 mg/day, Week 12, diabetic gastroparesis population
# [14] = 15 mg/day, Week 12, idiopathic gastroparesis population
# [15] = 30 mg/day, Week 4, diabetic gastroparesis population
# [16] = 30 mg/day, Week 4, idiopathic gastroparesis population
# [17] = 30 mg/day, Week 8, diabetic gastroparesis population
# [18] = 30 mg/day, Week 8, idiopathic gastroparesis population
# [19] = 30 mg/day, Week 12, diabetic gastroparesis population
# [20] = 30 mg/day, Week 12, idiopathic gastroparesis population
substance,measurement,setting,value
"1-isopropyl-2-oxo-1,2-dihydroquinoline-3-carboxylic acid {(1S,3R,5R)-8-[(R)-2-hydroxy-3-(methanesulfonyl-methyl-amino)propyl]-8-azabicyclo[3.2.1]oct-3-yl}amide [Velusetrag]","LS Mean Difference vs placebo, weekly GRS total score","[1]; 5 mg/day, Week 4",−0.4 points and −0.4 (0.16) points
same,"LS Mean change from baseline, weekly GRS total score","[1]; 5 mg/day, Week 4",−1.3 (0.11) points
same,"LS Mean Difference vs placebo, weekly GRS total score","[1]; 5 mg/day, Week 8",−0.3 (0.18) points
same,"LS Mean change from baseline, weekly GRS total score","[1]; 5 mg/day, Week 8",−1.4 (0.13) points
same,"LS Mean Difference vs placebo, weekly GRS total score","[1]; 5 mg/day, Week 12",−0.4 (0.18) points
same,"LS Mean change from baseline, weekly GRS total score","[1]; 5 mg/day, Week 12",−1.5 (0.13) points
same,"LS Mean Difference vs placebo, weekly GRS total score","[1]; 15 mg/day, Week 4",−0.2 (0.17) points
same,"LS Mean change from baseline, weekly GRS total score","[1]; 15 mg/day, Week 4",−1.1 (0.12) points
same,"LS Mean Difference vs placebo, weekly GRS total score","[1]; 15 mg/day, Week 8",−0.1 (0.19) points
same,"LS Mean change from baseline, weekly GRS total score","[1]; 15 mg/day, Week 8",−1.2 (0.14) points
same,"LS Mean Difference vs placebo, weekly GRS total score","[1]; 15 mg/day, Week 12",−0.2 (0.19) points
same,"LS Mean change from baseline, weekly GRS total score","[1]; 15 mg/day, Week 12",−1.3 (0.14) points
same,"LS Mean Difference vs placebo, weekly GRS total score","[1]; 30 mg/day, Week 4",0.0 (0.17) points
same,"LS Mean change from baseline, weekly GRS total score","[1]; 30 mg/day, Week 4",−0.8 (0.12) points
same,"LS Mean Difference vs placebo, weekly GRS total score","[1]; 30 mg/day, Week 8",−0.1 (0.19) points
same,"LS Mean change from baseline, weekly GRS total score","[1]; 30 mg/day, Week 8",−1.1 (0.13) points
same,"LS Mean Difference vs placebo, weekly GRS total score","[1]; 30 mg/day, Week 12",−0.1 (0.19) points
same,"LS Mean change from baseline, weekly GRS total score","[1]; 30 mg/day, Week 12",−1.3 (0.13) points
same,"LS Mean Difference vs placebo, GRS Summary Score 2 (Factor 2)","[2]; 5 mg/day, Week 4, ITT",−0.1 points and −0.1 (0.12) points
same,"LS Mean change from baseline, GRS Summary Score 2 (Factor 2)","[2]; 5 mg/day, Week 4, ITT",0.8 (0.08) points
same,"LS Mean Difference vs placebo, GRS Summary Score 2 (Factor 2)",[2]; [3],−0.0 points
same,"LS Mean change from baseline, GRS Summary Score 2 (Factor 2)",[2]; [3],−0.8 points
same,"LS Mean Difference vs placebo, GRS Summary Score 2 (Factor 2)",[2]; [4],−0.3 (0.17) points
same,"LS Mean change from baseline, GRS Summary Score 2 (Factor 2)",[2]; [4],−0.9 (0.12) points
same,"LS Mean Difference vs placebo, GRS Summary Score 2 (Factor 2)","[2]; 5 mg/day, Week 8, ITT",−0.1 (0.13) points
same,"LS Mean change from baseline, GRS Summary Score 2 (Factor 2)","[2]; 5 mg/day, Week 8, ITT",−0.9 (0.09) points
same,"LS Mean Difference vs placebo, GRS Summary Score 2 (Factor 2)",[2]; [5],0.0 points
same,"LS Mean change from baseline, GRS Summary Score 2 (Factor 2)",[2]; [5],−0.9 points
same,"LS Mean Difference vs placebo, GRS Summary Score 2 (Factor 2)",[2]; [6],−0.3 (0.18) points
same,"LS Mean change from baseline, GRS Summary Score 2 (Factor 2)",[2]; [6],−0.9 (0.13) points
same,"LS Mean Difference vs placebo, GRS Summary Score 2 (Factor 2)","[2]; 5 mg/day, Week 12, ITT",−0.2 points and −0.2 (0.12) points
same,"LS Mean change from baseline, GRS Summary Score 2 (Factor 2)","[2]; 5 mg/day, Week 12, ITT",−1.0 (0.08) points
same,"LS Mean Difference vs placebo, GRS Summary Score 2 (Factor 2)",[2]; [7],−0.1 points
same,"LS Mean change from baseline, GRS Summary Score 2 (Factor 2)",[2]; [7],−1.0 points
same,"LS Mean Difference vs placebo, GRS Summary Score 2 (Factor 2)",[2]; [8],−0.3 (0.17) points
same,"LS Mean change from baseline, GRS Summary Score 2 (Factor 2)",[2]; [8],−1.0 (0.12) points
same,"LS Mean Difference vs placebo, GRS Summary Score 2 (Factor 2)","[2]; 15 mg/day, Week 4, ITT",−0.0 (0.12) points
same,"LS Mean change from baseline, GRS Summary Score 2 (Factor 2)","[2]; 15 mg/day, Week 4, ITT",−0.7 (0.09) points
same,"LS Mean Difference vs placebo, GRS Summary Score 2 (Factor 2)",[2]; [9],0.1 points
same,"LS Mean change from baseline, GRS Summary Score 2 (Factor 2)",[2]; [9],−0.7 points
same,"LS Mean Difference vs placebo, GRS Summary Score 2 (Factor 2)",[2]; [10],−0.2 (0.18) points
same,"LS Mean change from baseline, GRS Summary Score 2 (Factor 2)",[2]; [10],−0.8 (0.13) points
same,"LS Mean Difference vs placebo, GRS Summary Score 2 (Factor 2)","[2]; 15 mg/day, Week 8, ITT",−0.0 (0.13) points
same,"LS Mean change from baseline, GRS Summary Score 2 (Factor 2)","[2]; 15 mg/day, Week 8, ITT",−0.8 (0.10) points
same,"LS Mean Difference vs placebo, GRS Summary Score 2 (Factor 2)",[2]; [11],0.3 points
same,"LS Mean change from baseline, GRS Summary Score 2 (Factor 2)",[2]; [11],−0.6 points
same,"LS Mean Difference vs placebo, GRS Summary Score 2 (Factor 2)",[2]; [12],−0.2 (0.19) points
same,"LS Mean change from baseline, GRS Summary Score 2 (Factor 2)",[2]; [12],−0.9 (0.14) points
same,"LS Mean Difference vs placebo, GRS Summary Score 2 (Factor 2)","[2]; 15 mg/day, Week 12, ITT",−0.1 (0.12) points
same,"LS Mean change from baseline, GRS Summary Score 2 (Factor 2)","[2]; 15 mg/day, Week 12, ITT",−0.9 (0.09) points
same,"LS Mean Difference vs placebo, GRS Summary Score 2 (Factor 2)",[2]; [13],0.1 points
same,"LS Mean change from baseline, GRS Summary Score 2 (Factor 2)",[2]; [13],−0.8 points
same,"LS Mean Difference vs placebo, GRS Summary Score 2 (Factor 2)",[2]; [14],−0.3 (0.18) points
same,"LS Mean change from baseline, GRS Summary Score 2 (Factor 2)",[2]; [14],−1.0 (0.13) points
same,"LS Mean Difference vs placebo, GRS Summary Score 2 (Factor 2)","[2]; 30 mg/day, Week 4, ITT",0.1 (0.12) points
same,"LS Mean change from baseline, GRS Summary Score 2 (Factor 2)","[2]; 30 mg/day, Week 4, ITT",−0.6 (0.09) points
same,"LS Mean Difference vs placebo, GRS Summary Score 2 (Factor 2)",[2]; [15],0.1 points
same,"LS Mean change from baseline, GRS Summary Score 2 (Factor 2)",[2]; [15],−0.6 points
same,"LS Mean Difference vs placebo, GRS Summary Score 2 (Factor 2)",[2]; [16],−0.0 (0.17) points
same,"LS Mean change from baseline, GRS Summary Score 2 (Factor 2)",[2]; [16],−0.7 (0.12) points
same,"LS Mean Difference vs placebo, GRS Summary Score 2 (Factor 2)","[2]; 30 mg/day, Week 8, ITT",−0.0 (0.13) points
same,"LS Mean change from baseline, GRS Summary Score 2 (Factor 2)","[2]; 30 mg/day, Week 8, ITT",−0.8 (0.09) points
same,"LS Mean Difference vs placebo, GRS Summary Score 2 (Factor 2)",[2]; [17],0.1 points
same,"LS Mean change from baseline, GRS Summary Score 2 (Factor 2)",[2]; [17],−0.8 points
same,"LS Mean Difference vs placebo, GRS Summary Score 2 (Factor 2)",[2]; [18],−0.1 (0.18) points
same,"LS Mean change from baseline, GRS Summary Score 2 (Factor 2)",[2]; [18],−0.8 (0.13) points
same,"LS Mean Difference vs placebo, GRS Summary Score 2 (Factor 2)","[2]; 30 mg/day, Week 12, ITT",−0.2 (0.12) points
same,"LS Mean change from baseline, GRS Summary Score 2 (Factor 2)","[2]; 30 mg/day, Week 12, ITT",−1.0 (0.08) points
same,"LS Mean Difference vs placebo, GRS Summary Score 2 (Factor 2)",[2]; [19],−0.2 points
same,"LS Mean change from baseline, GRS Summary Score 2 (Factor 2)",[2]; [19],−1.1 points
same,"LS Mean Difference vs placebo, GRS Summary Score 2 (Factor 2)",[2]; [20],−0.2 (0.17) points
same,"LS Mean change from baseline, GRS Summary Score 2 (Factor 2)",[2]; [20],−0.9 (0.12) points

# From patent US11642339B2 (THERAVANCE BIOPHARMA R&D IP, LLC, priority 2017, dated 2023)
